Measurements: patent EP0019937B1, “A method for producing alcohol oxidase, alcohol oxidase, enzyme preparation and a method for determining the concentration of a compound in an alcohol-containing sample” (PHILLIPS PETROLEUM COMPANY, priority 1979, dated 1980)

Experiments:
[1] = target: T1, alcohol oxidase from Pichia pastoris (Komagataella phaffii, UniProt P04842); assay: Characteristics of the Pichia enzyme (Km, inhibitors, substrate reactivity); type: biochemical
T1 construct: preparation and isolation of pure crystalline alcohol oxidase from Pichia pastoris; endogenous in cells; homogenate supernatant dialysed to give crystalline enzyme
T1 sequence (P04842 1-663): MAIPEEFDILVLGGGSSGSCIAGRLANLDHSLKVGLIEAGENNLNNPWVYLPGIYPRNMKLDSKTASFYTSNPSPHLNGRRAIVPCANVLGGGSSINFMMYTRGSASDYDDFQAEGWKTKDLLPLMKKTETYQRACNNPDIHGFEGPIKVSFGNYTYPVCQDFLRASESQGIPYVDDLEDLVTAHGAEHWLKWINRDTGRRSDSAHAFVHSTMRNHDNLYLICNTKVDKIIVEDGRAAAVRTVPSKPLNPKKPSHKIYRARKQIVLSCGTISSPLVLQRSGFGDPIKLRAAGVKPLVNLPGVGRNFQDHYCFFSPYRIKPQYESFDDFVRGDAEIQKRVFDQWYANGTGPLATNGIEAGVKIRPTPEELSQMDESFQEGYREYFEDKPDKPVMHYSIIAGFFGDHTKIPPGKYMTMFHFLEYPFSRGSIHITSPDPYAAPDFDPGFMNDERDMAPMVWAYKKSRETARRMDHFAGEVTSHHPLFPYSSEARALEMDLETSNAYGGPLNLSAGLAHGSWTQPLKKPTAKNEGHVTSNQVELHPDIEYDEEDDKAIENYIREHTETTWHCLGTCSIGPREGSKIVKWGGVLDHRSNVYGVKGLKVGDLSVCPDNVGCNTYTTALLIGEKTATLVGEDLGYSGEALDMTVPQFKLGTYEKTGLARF

[2] = substrate: CO; assay: purified protein, by the assay type; conditions: other: apparent Michaelis constant; pH 6.5

For `CC=O` [acetaldehyde], the “reactivity of the alcohol oxidase toward substrate” value [1] was “not reactive”.

For `CO` [Methanol], the Km ([1]; read-out: Km for methanol, apparent Michaelis constant) was 4 mM.

B1: alcohol oxidase from Pichia pastoris (Komagataella phaffii GS115) (protein)
chain: T1 sequence (P04842 1-663)
B1 showed a Km [2] of 4 mM.
